We go through five molecules from patent publication US4122204A, “N-(4-tert-butylphenylthiosulfenyl)-N-alkyl aryl carbamate compounds” (priority 1976, dated 1978).

≈ marks a conversion by molar mass, not a printed value. Where two headings read alike, the source gives them in different places. A value given as a limit tells only on which side of the number the result lay.

The subject of data set [1] is Mexican bean beetle (Epilachna varivestis, Muls.). Nature of the data set: Mexican Bean Beetle Leaf Spray Test. It counts as in vivo. As to conditions: for LC50: Epilachna varivestis, 72 h, read-out: Mexican Bean Beetle LD50. Here is the method:
(§1) Suspensions of the test compounds were prepared by dissolving one gram of compound in 50 milliliters of acetone in which had been dissolved 0.1 gram (10 percent of the weight of compound) of an alkylphenoxy polyethoxyethanol surfactant, as an emulsifying or dispersing agent. The resulting solution was mixed into 150 milliliters of water to give roughly 200 milliliters of a suspension containing the compound in finely divided form. The thus-prepared stock suspension contained 0.5 percent by weight of test compound. The test concentration in parts per million by weight employed in the tests described hereinbelow were obtained by appropriate dilutions of the stock suspension with water. The test procedures were as follows:
Fourth instar larvae of the Mexican bean beetle (Epilachna varivestis, Muls.), reared on Tendergreen bean plants at a temperature of 80°±5° F. and 50±5 percent relative humidity, were the test insects.
The test compounds were formulated by diluting the stock suspension with water to give a suspension containing 500 parts of test compound per million parts of final formulation. Potted Tendergreen bean plants of standard height and age were placed on a revolving turntable and sprayed with 100-110 milliliters of test compound formulation by use of a DeVilbiss spray gun set at 10 psig air pressure. This application, which lasted 25 seconds, was sufficient to wet plants to run-off. As a control, 100-110 milliliters of a water-acetone-emulsifier solution containing no test compound were also sprayed on infested plants. When dry, the paired leaves were separated and each was placed in a 9 centimeter Petri dish lined with moistened filter paper. Five randomly selected larvae were introduced into each dish, and the dishes were closed. The closed dishes were labeled and held at a temperature of 80°±5° F. for three days. Although the larvae could easily consume the leaf within 24 to 48 hours, no more food was added. Larvae which were unable to move the length of the body, even upon stimulation, were considered dead.

The test system of data set [2] is southern armyworm (Prodenia eridania, (Cram.)). Nature of the data set: Southern Armyworm Leaf Spray Test. It counts as in vivo. As to conditions: for LC50: Spodoptera eridania, 72 h, read-out: Southern Armyworm LD50. As for the experimental part:
as §1
Larvae of the southern armyworm (Prodenia eridania, (Cram.)), reared on Tendergreen bean plants at a temperature of 80°±5° F. and a relative humidity of 50±5 percent, constituted the test insects.
The test compounds were formulated by diluting the stock suspension with water to give a suspension containing 500 parts of test compound per million parts of final formulation. Potted Tendergreen bean plants of standard height and age were placed on a revolving turntable and sprayed with 100-110 milliliters of test compound formulation by use of a DeVilbiss spray gun set at 10 psig air pressure. This application, which lasted 25 seconds, was sufficient to wet plants to run-off. As a control, 100-110 milliliters of a water-acetone-emulsifier solution containing no test compound were also sprayed on infested plants. When dry, the paired leaves were separated and each one was placed in a 9 centimeter Petri dish lined with moistened filter paper. Five randomly selected larvae were introduced into each dish and the dishes were closed. The closed dishes were labeled and held at 80-85° F. for three days. Although the larvae could easily consume the whole leaf within twenty-four hours, no more food was added. Larvae which were unable to move the length of the body, even upon stimulation by prodding, were considered dead. Percent mortality was recorded for various concentration levels.

Data set [3] concerns two-spotted mite (Tetranychus urticae Koch). Nature of the data set: Mite Foliage Spray Test. Type of data set: in vivo. The note with it: foliar, 144 h, read-out: Mite LD50. As for the experimental part:
as §1
Adults and numphal stages of the two-spotted mite (Tetranychus urticae Koch), reared on Tendergreen bean plants at 80±5 percent relative humidity, were the test organisms. Infested leaves from a stock culture were placed on the primary leaves of two bean plants six to eight inches in height, growing in a two-and-a-half inch clay pot. 150-200 Mites, a sufficient number for testing, transferred from the excised leaves to the fresh plants in a period of twenty four hours. Following the twenty four hour transfer period, the excised leaves were removed from the infested plants. The test compounds were formulated by diluting the stock suspension with water to give a suspension containing 500 parts of test compound per million parts of final formulation. The potted plants (one pot per compound) were placed on a revolving turntable and sprayed with 100-110 milliliters of test compound formulation by use of a DeVilbiss spray gun set at 40 psig. air pressure. This application, which lasted 25 seconds, was sufficient to wet the plants to run-off. As a control, 100-110 milliliters of a water solution containing acetone and emulsifier in the same concentrations as the test compound formulation, but containing no test compound, were also sprayed on infested plants. The sprayed plants were held at 80±5 percent relative humidity for six days, after which a mortality countr of motile forms was made. Microscopic examination for motile forms was made on the leaves of the test plants. Any individual which was capable of locomotion upon prodding was considered living.

The test system of data set [4] is bean aphid (Aphis fabae Scop.). Nature of the data set: Bean Aphid Foliage Spray Test. Type of data set: in vivo. As to conditions: for LC50: Aphis fabae, foliar, read-out: Aphid LD50. Here is the method: as §1
Adults and nymphal stages of the bean aphid (Aphis fabae Scop.) reared on potted dwarf nasturtium plants at 65°-70° F. and 50-70 percent relative humidity, constituted the test insects. For testing purposes, the number of aphids per pot was standardized to 100-150 by trimming plants containing excess aphids.
The test compounds were formulated by diluting the stock suspension with water to give a suspension containing 500 parts of test compound per million parts of final formulation.
The potted plants (one pot per compound tested) infested with 100-150 aphids, were placed on a revolving turntable and sprayed with 100-110 milliliters of test compound formulation by use of a DeVilbiss spray gun set at 40 psig. air pressure. This application, which lasted 25 seconds, was sufficient to wet the plants to run-off. As a control, 100-110 milliliters of a water-acetone-emulsifier solution containing no test compound were also sprayed on infested plants. After spraying, the pots were placed on their sides on a sheet of white standard mimeograph paper which had been previously ruled to facilitate counting. Temperature and humidity in the test room during the 24 hour holding period were 65°-70° F. and 50-70 percent, respectively. Aphids which fell onto the paper and were unable to remain standing after being uprighted were considered dead. Aphids remaining on the plants were observed closely for movement and those which were unable to move the length of the body upon stimulation by prodding were considered dead. Percent mortality was recorded for various concentration levels.

In data set [5] the test system is rat. Description: in vivo. The note with it: for mammalian toxicity (in words): rat, in vivo. As for the experimental part: (§2) These compounds were also evaluated to determine their peroral toxicity to mammals by conventional methods. The animal selected for this experiment was the rat.
(§3) The toxicity is reported in […] required for a 50% kill (LD50).

Data set [6] can be described thus: in vivo. As to conditions: rat, in vivo, po. Here is the method:
as §2, §3

For data set [7], the system named is house flies (Musca domestica, L.). Description: Fly Bait Test. Type of data set: in vivo. The note with it: 24 h, read-out: House Fly LD50. Here is the method:
as §1
Four to six day old adult house flies (Musca domestica, L.), reared according to the specifications of the Chemical Specialities Manufacturing Association (Blue Book, McNair-Dorland Co., N.Y. 1954; pages 243-244, 261) under controlled conditions of 80°±5° F. and 50±5 percent relative humidity, were the test insects. The flies were immobilized by anesthetizing with carbon dioxide and twenty five immobilized individuals, males and females, were transferred to a cage consisting of a standard food strainer about five inches in diameter which was inverted over a wrapping-papercovered surface. The test compounds were formulated by diluting the stock suspension with a 10 percent (by weight) sugar solution to give a suspension containing 500 parts of test compound per million parts of final formulation, by weight. Ten milliliters of the test formulation were added to a souffle cup containing a one-inch square of an absorbent cotton pad. This bait cup was introduced and centered on the blotting paper under the food strainer prior to admitting the anesthetized flies. The caged flies were allowed to feed on the bait for twenty four hours, at a temperature of 80°±5° F. and the relative humidity of 50±5 percent.

Data set [8] deals with mites and insects. Nature of the data set: Pesticidal activity against mites and insects (general statement). As to conditions: in vivo. Here is the method: Selected species of the new compounds were evaluated in comparison with known similar prior art compounds to determine their pesticidal activity against mites and certain insects, including an aphid, a caterpillar, a beetle and a fly. The new compounds were further evaluated for mammalian toxicity.

Data set [9] relates to important economic crops. Nature of the data set: Phytotoxicity against important economic crops.
The mark [10] stands for this setting: leaf spray, ppm required for 50% kill, three days.
The mark [11] stands for this setting: foliage spray, ppm required for 50% kill, six days.
The mark [12] stands for this setting: foliage spray, ppm required for 50% kill, 24 hour holding period.
[13] abbreviates: LD50 value (mammalian toxicity), peroral, unit inferred.
Setting [14] is: Rat LD50, peroral, dose for mortality rate of 50 percent.
The mark [15] stands for this setting: bait test, ppm required for 50% kill, twenty four hours.

For `CNC(=O)Oc1cccc2c1OC(C)(C)C2` [Compound 1, 2,2-Dimethyl-2,3-dihydro-7-(N-methylcarbamoyloxy)benzofuran], the LC50 stood at 12 µg/mL (≈ 54.2 µM) in data set [1] (setting [10]); 90 µg/mL (≈ 407 µM) in [2] (setting [10]); 175 µg/mL (≈ 791 µM) in data set [3] (setting [11]); 2 µg/mL (≈ 9.04 µM) in data set [4] (setting [12]); 12 µg/mL (≈ 54.2 µM) in data set [7] (setting [15]). Moreover, the “mammalian toxicity (in words)” value in data set [5] is “unacceptable levels of mammaliam toxicity”. The LD50 in data set [6] (setting [13]) and in [6] (setting [14]) was 8 to 14 mg/kg in each case.

As for `Cc1ccc(SSN(C)C(=O)Oc2cccc3c2OC(C)(C)C3)cc1` [Compound 2, 2,2-Dimethyl-2,3-dihydro-7-[N-methyl-N-(4-methylphenyl-thiosulfenyl)carbamoyloxy]benzofuran], the LC50 is 4 µg/mL (≈ 10.7 µM) in data set [1]; roughly 25 µg/mL (≈ 66.6 µM) in data set [2]; 130 µg/mL (≈ 346 µM) in data set [3]; 1.4 µg/mL (≈ 3.73 µM) in data set [4] (24 h); 21 µg/mL (≈ 55.9 µM) in data set [7]. Also, in data set [8], the “pesticidal activity against mites and insects (in words)” value is listed as “levels generally comparable to those of the parent compounds”. Also, the LD50 in data set [6] (setting [13]) and in data set [6] (setting [14]) was 20 mg/kg in each case.

Take `CN(SSc1ccc(C(C)(C)C)cc1)C(=O)Oc1cccc2c1OC(C)(C)C2` [Compound 3, 2,2-Dimethyl-2,3-dihydro-7-[N-methyl-N-(4-tert-butylphenylthiosulfenyl)carbamoyloxy] benzofuran]: the LC50 in data set [1] was 5 µg/mL (≈ 12 µM); in data set [2], 40 µg/mL (≈ 95.8 µM); in [3], greater than 500 µg/mL; in [4] (24 h), 3 µg/mL (≈ 7.18 µM); in data set [7] it was less than 17 µg/mL. In addition, the “insecticidal activity against bean beetle (in words)” value in data set [1] (in vivo) is “exceptionally high level of insecticidal activity”. The “insecticidal activity against south armyworm (in words)” value in data set [2] (in vivo) is recorded as “exceptionally high level of insecticidal activity”. Besides, the “insecticidal activity against aphid (in words)” value in data set [4] (in vivo) is recorded as “exceptionally high level of insecticidal activity”. In addition, in [9], the “phytotoxicity (in words)” value is on record as “low phytotoxicity”. Moreover, the “times less toxic to mammals than parent compound (compound 1)” value in data set [5] (rat LD50 ratio vs compound 1) is “at least 38 times”. For the same molecule, in [5] (rat LD50 ratio vs compound 2), the “times less toxic to mammals than 4-methylphenylthiosulfenyl derivative (compound 2)” value is “at least 23 times”. Moreover, the “mammalian toxicity (in words)” value in [5] was “extremely low mammalian toxicity”. Further, the LD50 in [6] (setting [13]) and in data set [6] (setting [14]) was 453 mg/kg in each case.

Consider `CC(C)Oc1ccccc1OC(=O)N(C)SSc1ccc(C(C)(C)C)cc1` [Compound 4, 2-Isopropoxy-[N-methyl-N-(4-tert-butylphenylthiosulfenyl)carbamoyloxy]benzene], for which the LC50 in data set [1] is 11 µg/mL (≈ 27.1 µM); in data set [2] it was 250 µg/mL (≈ 616 µM); in [3] it was greater than 500 µg/mL; in data set [4] (24 h), 22 µg/mL (≈ 54.2 µM); in [7], 110 µg/mL (≈ 271 µM). Besides, in data set [9], the “phytotoxicity (in words)” value is given as “extremely low phytotoxicity”. Moreover, the “mammalian toxicity (in words)” value in data set [5] is given as “very low level of mammalian toxicity”. In addition, the LD50 in data set [6] (setting [13]) was greater than 640 mg/kg; in [6] (setting [14]) it was 640 mg/kg.

Regarding `CNC(=O)Oc1ccccc1OC(C)C` [Compound 5, 2-Isopropoxy-(N-methyl-carbamoyloxy)benzene], the LC50 is 12 µg/mL (≈ 57.3 µM) in [1] (setting [10]); 500 µg/mL (≈ 2390 µM) in [2] (setting [10]); greater than 500 µg/mL in [3] (setting [11]); 16 µg/mL (≈ 76.5 µM) in data set [4] (setting [12]); 16 µg/mL (≈ 76.5 µM) in data set [7] (setting [15]). Besides, the LD50 in data set [6] (setting [13]) and in data set [6] (setting [14]) was 95 to 104 mg/kg in each case.
